This is an account of results in ChEMBL document CHEMBL1201862, “PubChem BioAssay data set” (2004).

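Five concentrations, 48 hours, 96-well plates. The concentration for 50% growth inhibition is given as GI50.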 The source made the active and inactive calls. No stated cut-off is given here; in the data, active = GI50 up to about 1.1 µM and inactive = higher.

Test systems include A498; A549; BT-549; COLO 205; IGROV-1; LOX IMVI; MDA-MB-231; MDA-N; Malme-3M; NCI-H226; PC-3; RPMI-8226; RXF 393; SF-295; SK-MEL-28; SK-MEL-2; SK-MEL-5; SNB-75; T47D.
Test in all cases: inhibition of tumour cell growth, NCI panel, 48 h

Take `O=C1CC2(CCC(O)(c3ccc(Cl)cc3)C(C(=O)c3ccc(Cl)cc3)C2)C(=O)c2ccccc2N1` (stereo unspecified): the GI50 with A498 is 17.3 µM (inactive); in the experiment on A549, 12.5 µM (inactive); in the experiment on BT-549, 19.7 µM (inactive); with COLO 205 it was 5.74 µM (inactive); in the experiment with IGROV-1, > 26.3 µM (inactive); in the experiment with LOX IMVI, 11.7 µM (inactive). The GI50 with MDA-MB-231 is 10.2 µM (inactive); in the experiment with MDA-N, 15.2 µM (inactive); in the experiment on Malme-3M it was > 28.1 µM (inactive); in the experiment with NCI-H226, 12.7 µM (inactive); in the experiment on PC-3 it was > 100 µM (inactive); in the experiment with RPMI-8226, 18.6 µM (inactive). Also, the GI50 is 4.89 µM (inactive) in the experiment on RXF 393; 6.47 µM (inactive) in the experiment with SF-295; 4.53 µM (inactive) in the experiment on SK-MEL-28; > 100 µM (inactive) in the experiment with SK-MEL-2; 11.4 µM (inactive) in the experiment with SK-MEL-5; 0.146 µM (active) with SNB-75. Moreover, the GI50 in the experiment on T47D was 12.4 µM (inactive).
For the compound `CC(=O)Nc1ccc(-c2nc3ccccc3s2)cc1Br`, the GI50 in the experiment with A498 was 4.54 µM (inactive); with A549, > 86.9 µM (inactive); in the experiment with BT-549, 29.1 µM (inactive); with COLO 205, > 86.7 µM (inactive); in the experiment with IGROV-1 it was 0.0124 µM (active); in the experiment with LOX IMVI, 71.1 µM (inactive). Further, the GI50 in the experiment on MDA-MB-231 was 39.2 µM (inactive); in the experiment on MDA-N, > 100 µM (inactive); in the experiment with Malme-3M, > 62.1 µM (inactive); in the experiment with NCI-H226, 2.42 µM (inactive); with PC-3 it was > 100 µM (inactive); with RPMI-8226 it was > 92.9 µM (inactive). Besides, the GI50 is 23.4 µM (inactive) in the experiment on RXF 393; 30.8 µM (inactive) in the experiment with SF-295; > 100 µM (inactive) with SK-MEL-28; > 100 µM (inactive) in the experiment on SK-MEL-2; > 100 µM (inactive) in the experiment with SK-MEL-5; 32.1 µM (inactive) in the experiment on SNB-75. Moreover, the GI50 in the experiment with T47D was 0.687 µM (active).
`Cn1c(=O)c2c(nc3n2CC(C(=O)O)N3)n(C)c1=O` (stereo unspecified): the GI50 with A498, with A549, with BT-549, in the experiment with COLO 205, in the experiment on IGROV-1 and in the experiment on LOX IMVI was > 100 µM (inactive) each time. The GI50 in the experiment on MDA-MB-231, in the experiment with MDA-N, in the experiment on Malme-3M, in the experiment on NCI-H226, in the experiment on PC-3 and with RPMI-8226 was > 100 µM (inactive) each time. Besides, the GI50 in the experiment on RXF 393, in the experiment on SF-295, with SK-MEL-28, in the experiment on SK-MEL-2, in the experiment with SK-MEL-5 and with SNB-75 was > 100 µM (inactive) in each case. Besides, the GI50 in the experiment on T47D was > 100 µM (inactive).
For `Fc1ccc(OCc2nc3cc(C(F)(F)F)ccc3nc2-c2ccccc2)cc1`, the GI50 with A498 was > 100 µM (inactive); in the experiment with A549, > 100 µM (inactive); in the experiment with BT-549, > 46.1 µM (inactive); with COLO 205 it was > 100 µM (inactive); in the experiment on IGROV-1 it was > 100 µM (inactive); in the experiment on LOX IMVI, > 100 µM (inactive). Moreover, the GI50 was > 100 µM (inactive) in the experiment with MDA-MB-231; > 100 µM (inactive) with MDA-N; > 58.9 µM (inactive) in the experiment with Malme-3M; > 100 µM (inactive) in the experiment on NCI-H226; > 100 µM (inactive) in the experiment with PC-3; 46.6 µM (inactive) in the experiment with RPMI-8226. Also, the GI50 was > 100 µM (inactive) in the experiment on RXF 393; > 100 µM (inactive) in the experiment on SF-295; > 100 µM (inactive) in the experiment on SK-MEL-28; > 100 µM (inactive) with SK-MEL-2; 29.7 µM (inactive) with SK-MEL-5; > 100 µM (inactive) in the experiment with SNB-75. For the same compound, the GI50 in the experiment with T47D is 62.5 µM (inactive).
In the case of `COc1ccccc1NC(=O)C(=O)C(C#N)CC(C)(C)C=O` (stereo unspecified), the GI50 in the experiment with A498, in the experiment with A549, in the experiment with BT-549, in the experiment with IGROV-1, in the experiment on LOX IMVI and in the experiment with MDA-MB-231 was > 100 µM (inactive) throughout. The GI50 in the experiment on MDA-N, in the experiment with Malme-3M, in the experiment on NCI-H226, in the experiment on PC-3, in the experiment on RPMI-8226 and with RXF 393 was > 100 µM (inactive) throughout. The GI50 in the experiment with SF-295, in the experiment on SK-MEL-28, in the experiment with SK-MEL-2, in the experiment with SK-MEL-5, in the experiment with SNB-75 and with T47D was > 100 µM (inactive) throughout.
As for `CN(C)CCCN1C(=S)N(CCCN(C)C)c2c3cc(O)ccc3nc3c([N+](=O)[O-])ccc1c23`, the GI50 in the experiment with A498 is 0.839 µM (active); in the experiment on A549, 0.743 µM (active); in the experiment with BT-549 it was 11.7 µM (inactive); in the experiment on COLO 205, 1.12 µM (inactive); in the experiment with IGROV-1 it was 0.7 µM (active); with LOX IMVI it was 1.26 µM (inactive). In addition, the GI50 in the experiment with MDA-MB-231 was 3.71 µM (inactive); in the experiment with MDA-N it was 3.42 µM (inactive); in the experiment on Malme-3M, 6.7 µM (inactive); in the experiment on NCI-H226 it was 1.94 µM (inactive); in the experiment on PC-3, 2.05 µM (inactive); in the experiment on RPMI-8226 it was 4.46 µM (inactive). The GI50 was 3.03 µM (inactive) in the experiment with RXF 393; 3.37 µM (inactive) in the experiment with SF-295; 2.58 µM (inactive) in the experiment on SK-MEL-28; 6.47 µM (inactive) with SK-MEL-2; 3.18 µM (inactive) with SK-MEL-5; 3.37 µM (inactive) with SNB-75. The GI50 in the experiment on T47D is 1.44 µM (inactive).
As to `CC(=O)N1CC(=O)N2C(=O)/C(=C/c3ccc(Cl)cc3)N=C12`, the GI50 in the experiment with A498, in the experiment with A549, with BT-549, in the experiment with COLO 205, in the experiment on LOX IMVI and with MDA-MB-231 was > 100 µM (inactive) in each case. The GI50 was > 100 µM (inactive) in the experiment with MDA-N; > 100 µM (inactive) with Malme-3M; > 100 µM (inactive) in the experiment with NCI-H226; > 100 µM (inactive) in the experiment on PC-3; 50.7 µM (inactive) with RPMI-8226; > 100 µM (inactive) in the experiment with RXF 393. Besides, the GI50 is > 100 µM (inactive) in the experiment with SF-295; > 100 µM (inactive) in the experiment on SK-MEL-28; > 100 µM (inactive) with SK-MEL-2; > 100 µM (inactive) in the experiment with SK-MEL-5; > 100 µM (inactive) in the experiment on SNB-75; 53.1 µM (inactive) in the experiment on T47D.
For the compound `COc1cccc2c(N)c3cccc(C(=O)NCCN(C)C)c3nc12`, the GI50 in the experiment with A498 was 0.281 µM (active); in the experiment on A549 it was 0.0233 µM (active); in the experiment on BT-549, 1.19 µM (inactive); in the experiment with COLO 205, 0.13 µM (active); in the experiment with IGROV-1 it was 0.22 µM (active); in the experiment with LOX IMVI it was 0.0513 µM (active). The GI50 was 0.214 µM (active) with MDA-MB-231; 0.321 µM (active) in the experiment with MDA-N; 0.0927 µM (active) in the experiment with Malme-3M; 0.11 µM (active) with NCI-H226; 0.326 µM (active) in the experiment on PC-3; 0.221 µM (active) in the experiment with RPMI-8226. Besides, the GI50 was 0.213 µM (active) in the experiment on RXF 393; 0.297 µM (active) in the experiment on SF-295; 1.27 µM (inactive) in the experiment on SK-MEL-28; 0.447 µM (active) with SK-MEL-2; 0.367 µM (active) with SK-MEL-5; 0.0944 µM (active) in the experiment with SNB-75. The GI50 with T47D is 0.274 µM (active).
With `O=C1NCN(c2ccccc2)C12CCN(CCCN1CCN(CCOC(c3ccccc3)c3ccccc3)CC1)CC2`, the GI50 with A498 is 3.36 µM (inactive); in the experiment on A549, 4.14 µM (inactive); with BT-549, 3.92 µM (inactive); with COLO 205, 1.18 µM (inactive); in the experiment with IGROV-1, 4.03 µM (inactive); in the experiment with LOX IMVI, 3.01 µM (inactive). Besides, the GI50 in the experiment with MDA-MB-231 was 3.52 µM (inactive); with MDA-N it was 0.8 µM (active); in the experiment with Malme-3M, 2.23 µM (inactive); in the experiment on NCI-H226 it was 2.96 µM (inactive); with PC-3 it was 3.99 µM (inactive); in the experiment with RPMI-8226, 1.67 µM (inactive). For the same compound, the GI50 in the experiment with RXF 393 is 1.5 µM (inactive); in the experiment with SF-295 it was 2.69 µM (inactive); with SK-MEL-28, 1.34 µM (inactive); in the experiment with SK-MEL-2, 3.11 µM (inactive); in the experiment on SK-MEL-5, 1.28 µM (inactive); with SNB-75, 2.18 µM (inactive). The GI50 in the experiment with T47D is 3.02 µM (inactive).
For `CCOC(=O)Nc1c(C#N)[n+]([O-])c2cc(Cl)c(Cl)cc2[n+]1[O-]`, the GI50 in the experiment with A498 was 7.69 µM (inactive); in the experiment with A549, 22 µM (inactive); in the experiment with BT-549 it was 15.6 µM (inactive); with COLO 205, 15 µM (inactive); in the experiment on IGROV-1 it was 13.1 µM (inactive); in the experiment on LOX IMVI, 6.1 µM (inactive). In addition, the GI50 in the experiment with MDA-MB-231 was 15.9 µM (inactive); in the experiment with MDA-N, 16.1 µM (inactive); in the experiment on Malme-3M it was 15.2 µM (inactive); in the experiment with NCI-H226 it was 15.7 µM (inactive); in the experiment with PC-3, 7.28 µM (inactive); in the experiment with RPMI-8226, 2.15 µM (inactive). For the same compound, the GI50 was 15.1 µM (inactive) in the experiment with RXF 393; 14.6 µM (inactive) in the experiment on SF-295; 14.6 µM (inactive) in the experiment with SK-MEL-28; 17.7 µM (inactive) in the experiment on SK-MEL-2; 10.5 µM (inactive) in the experiment on SK-MEL-5; 15.4 µM (inactive) in the experiment on SNB-75. Further, in the experiment with T47D, the GI50 was 13.5 µM (inactive).
Take `O=[N+]([O-])c1cc2c(cc1/C=N/n1c(CO)nc3ccccc31)OCO2`: the GI50 with A498, with A549, in the experiment on BT-549, in the experiment with COLO 205, in the experiment on LOX IMVI and in the experiment on MDA-MB-231 was > 100 µM (inactive) each time. Moreover, the GI50 in the experiment on MDA-N, with Malme-3M, with NCI-H226, with PC-3, with RPMI-8226 and in the experiment with RXF 393 was > 100 µM (inactive) each time. Also, the GI50 in the experiment on SF-295, in the experiment with SK-MEL-28, in the experiment on SK-MEL-2, in the experiment with SK-MEL-5, with SNB-75 and in the experiment on T47D was > 100 µM (inactive) throughout.
